This is an account of results in US11992697B2, “X-ray psoralen activated cancer therapy (X-PACT)” (IMMUNOLIGHT, LLC, priority 2015, dated 2024).

SMILES strings stand for the structures.

The test system of one data set is 4T1. The data set is described as follows: UV light activated psoralen, Cell-Titer-Glo Luminescence Cell Viability Assay (FIG. 3A). The format is cell-based, murine. The conditions noted are these: psoralen 40 μM; UV light 0, 0.25, 0.5, 1.0 J/cm^2. The method, then: (§1) Metabolic cell viability was also assessed visually using Methylene blue staining and ATP-induced Luminescence imaging (Cell-Titer-Glo® Luminescence Cell Viability Assay). The luminescence imaging permitted investigation of the cytotoxicity of psoralen activated directly with a UV lamp, and in the absence of phosphors and x-ray radiation.
(§2) N=4 for each cell line at each UV light condition (0, 0.25, 0.5, 1.0 J/cm^2). The psoralen concentration was 40 μM.

The next data set relates to KP158B (sarcoma). Described as above. It is filed as cell-based, murine. The conditions noted are these: psoralen 40 μM; UV light 0, 0.25, 0.5, 1.0 J/cm^2. The method, then:
as §1, §2

For data set [1], the system named is syngeneic 4T1-HER2 tumors. The experiment in a line: In-vivo X-PACT trial, tumor growth (FIG. 6). Further details: species or system BALB/c mice. The conditions noted are these: 5 μM psoralen (AMT) or 100 μg phosphor with x-ray; compared with expectation from in-vitro data. As to the method: An in-vivo trial was conducted for preliminary evaluation of X-PACT administered to syngeneic 4T1-HER2 tumors grown on BALB/c mice. There were 4 arms of the trial: (1) saline only (control), (2) phosphors alone with x-ray, (3) psoralen (AMT) alone with x-ray, and (4) full X-PACT treatment including both phosphor and psoralen and x-ray irradiation. X-PACT treatments were given in 3 fractions per week, to a total of 6 fractions. In arms 2-3 a consistent x-ray irradiation technique was used (about 1.2 Gy delivered at 75 kVp by 30 mA in 3 minutes) with 100 μg of phosphor, and 5 μM psoralen (AMT) (with μM representing micromolar). 0.5 Million tumor cells were injected per mouse. There were 6-8 mice per arm, and the study was repeated a second time, yielding effective sample sizes of 12-16.
In this evaluation, X-PACT treatment was applied to BALBC mice with syngeneic 4T1-HER2 tumors. In the separate psoralen and phosphor control arms (blue and red respectively), 5 μM psoralen (AMT) and 100 μg of phosphor where applied. A consistent x-ray irradiation technique was used for all arms (except saline control) which was 2 Gy delivered at 75 kVp by 30 mA in 3 minutes.

The test system of data set [2] is CT2A (murine malignant glioma). The experiment in a line: UV light activated psoralen, Cell-Titer-Glo Luminescence Cell Viability Assay (FIG. 3A). It is filed as cell-based. The conditions noted are these: psoralen 40 μM; UV light 0, 0.25, 0.5, 1.0 J/cm^2. As to the method: as §1, §2
In the next data set the test system is 4T1-HER2 cells. The data set is described as follows: In-vitro X-PACT Annexin V (+) signal by Guava flow cytometry (FIGS. 2B, 4, 5). The conditions noted are these: component alone; 36 independent irradiation experiments, 1 Gy at 80 kVp. The format is cell-based, murine. The method, then:
Guava Annexin V flow cell cytometry was used to quantify cytotoxicity in 3 murine tumor cell lines (breast-4T1, glioma-CT2A, and sarcoma KP15B8). In-vitro X-PACT studies were conducted on cells prepared in the following manner. Cells were incubated in appropriate growing media and buffers before being trypsinized and plated evenly onto twelve (12) well plates for 24 hours. About 20 minutes prior to X-PACT irradiation, the wells of each plate were exposed to the following combinations of additives: (1) control—cells only with no additives, (2) UVADEX only, (3) phosphors only, (4) UVADEX+phosphors. Each plate had twelve (12) wells with three wells for each of the four treatment arms. […]
Two primary flow cytometry metrics were used to evaluate the X-PACT treatments, both determined at 48h after X-PACT treatment. […] The first metric is metabolically viable cell count (or cell viability) determined from the number of whole cells per well as determined using forward scattering (FSC). […] (All wells on a given plate receive the same dose.) The second metric is Annexin V (+) signal, which is the fraction of the metabolically viable cells which expressed a positive Annexin V signal as determined by flow cell cytometry, and include any cells advancing toward early or late apoptotic cell death. […]
(In flow cytometry, cells or beads pass a laser one at a time.)

Consider `O=c1ccc2cc3ccoc3cc2o1` [psoralen], for which the “effect of UV light activated psoralen on viable cells” value (in the data set with 4T1; in the data set with KP158B (sarcoma); in data set [2]) was “reduce viable cells” throughout. Moreover, the “component effect on tumor growth (single-component arm with x-ray)” value in data set [1] is given as “slightly higher component effect”. In addition, the “effect on cytotoxicity (Annexin V signal), multi-variable regression” value in the data set with 4T1-HER2 cells was “neither psoralen nor phosphor alone had a strong effect”.
